According to BindingDB's records for doi:10.1021/jm00346a010 (1982):

Key:
[1] = molecular target: Adenylate kinase (Escherichia coli) (UniProt P69441); assay: Ability to inhibit Escherichia coli adenylate kinase II, activity expressed as Inhibition constant
[2] = molecular target: Adenylate kinase (Escherichia coli) (UniProt P69441); assay: Ability to inhibit Escherichia coli adenylate kinase III, activity expressed as Inhibition constant; Non competitive inhibition

| Compound | Ki [1] [mM] | Ki [2] [mM] |
| --- | --- | --- |
| NCCCCCCNc1nc2c(N)ncnc2n1C1O[C@H](COP(=O)(O)OP(=O)(O)OP(=O)(O)O)[C@@H](O)[C@H]1O (stereo not given in full) | 7.3 | – |
| CN(CCCN(C)C(=O)CCCCNc1ncnc2c1ncn2[C@@H]1O[C@H](COP(=O)(O)OP(=O)(O)OP(=O)(O)O)[C@@H](O)[C@H]1O)C(=O)CCCCNC(=O)OCc1ccccc1 | 6.8 | – |
| O=C(CI)NCCCCCNc1ncnc2c1ncn2[C@@H]1O[C@H](COP(=O)(O)OP(=O)(O)OP(=O)(O)O)[C@@H](O)[C@H]1O | – | 4.8 |
| CC(=O)NCCCCCCNc1nc2c(N)ncnc2n1C1O[C@H](COP(=O)(O)OP(=O)(O)OP(=O)(O)O)[C@@H](O)[C@H]1O (stereo not given in full) | 6.7 | – |
| O=C(NCCCCCNc1ncnc2c1ncn2C1O[C@H](COP(=O)(O)OP(=O)(O)OP(=O)(O)O)[C@@H](O)[C@H]1O)OCc1ccccc1 (stereo not given in full) | 4.7 | – |
